The structures appear in SMILES notation. Where “and” joins values, the source holds several entries; their conditions need not be identical. Equal values may be shown once.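 Exposure lasted 48 hours, with cells grown in 96-well plates and compounds tested at five concentrations. The concentration for 50% growth inhibition is given as GI50. The concentration for full growth arrest is given as TGI.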

This is an account of results in PubChem BioAssay (NCI).

Among the test systems are COLO 205 colon; OVCAR-4 ovarian; TK-10 renal; HOP-62 NSCLC; RPMI-8226 leukemia; NCI-H460 lung; OVCAR-5 ovarian; M19-MEL melanoma; DLD-1 colon; MDA-MB-231 breast.
Holding throughout (assay): NCI-60 cell line screen, 48 h

Turning to `O=C(CCc1nnc2s/c(=C\c3ccc([N+](=O)[O-])cc3)c(=O)n12)Nc1ccc(Cl)c(Cl)c1`, the TGI is 82.9 µM with COLO 205 colon; 35.1 µM in the assay on OVCAR-4 ovarian; greater than 100 µM in the assay on TK-10 renal; 45.7 µM with HOP-62 NSCLC; 46.5 µM with RPMI-8226 leukemia; greater than 100 µM with NCI-H460 lung. Moreover, the values for the TGI in the assay on OVCAR-5 ovarian, with M19-MEL melanoma and in the assay with DLD-1 colon were greater than 100 µM, greater than 100 µM and 46.5 µM, respectively.

With `C[C@@H]1C(=O)CC2C(C)(C)CCC[C@]2(C)[C@@]12CC[C@]1(C=COC1)O2` (some centres not stated), the TGI in the assay with COLO 205 colon, in the assay on OVCAR-4 ovarian, with HOP-62 NSCLC, with NCI-H460 lung, in the assay on OVCAR-5 ovarian and in the assay on M19-MEL melanoma was greater than 100 µM throughout.

For `CN(C)CC1CC/C(=C\c2ccc(Cl)c(Cl)c2)C1=O` (configuration not stated), the TGI was greater than 51.8 µM in the assay with COLO 205 colon; 58.2 µM in the assay on OVCAR-4 ovarian; 19.9 µM in the assay with TK-10 renal; greater than 95.1 µM with HOP-62 NSCLC; 8.92 µM in the assay with RPMI-8226 leukemia; 36.1 µM with NCI-H460 lung. The values for the TGI with OVCAR-5 ovarian, in the assay on M19-MEL melanoma and in the assay with DLD-1 colon were greater than 86.8 µM, greater than 51.2 µM and 50.1 µM, respectively.

For `Cc1c2cnccc2c(C)c2c1c1ccccc1n2CCOC(=O)c1ccccc1`, the TGI in the assay with COLO 205 colon came out at 47 µM; in the assay on OVCAR-4 ovarian, 49.3 µM; with TK-10 renal it was 40.9 µM; with HOP-62 NSCLC it was 31.5 µM; in the assay with RPMI-8226 leukemia it was 42 µM; in the assay with NCI-H460 lung it was 16 µM. The TGI with MDA-MB-231 breast is greater than 100 µM; in the assay on OVCAR-5 ovarian, 69 µM; with M19-MEL melanoma, 31.8 µM; with DLD-1 colon, 49.3 µM.

In the case of `CC(=O)OCC1C(=O)OCC1C(=O)N1Cc2cc3ccccc3nc2C1` (configuration not stated), the TGI in the assay on COLO 205 colon was determined as 2.04 µM; in the assay on OVCAR-4 ovarian, 4.89 µM; in the assay on TK-10 renal, 4.17 µM; with HOP-62 NSCLC, 32.7 µM; with RPMI-8226 leukemia, 4.6 µM; in the assay with NCI-H460 lung it was 28.8 µM. In addition, the TGI in the assay on MDA-MB-231 breast is 19.9 µM; in the assay on OVCAR-5 ovarian, 15.8 µM; with M19-MEL melanoma, 21.2 µM; in the assay with DLD-1 colon, 3.37 µM.

In the case of `Cc1c(C(Cc2ccccc2N(C)C(=O)/C=C\C(=O)O)c2c[nH]c3ccccc23)c2ccccc2n1C` (configuration not stated), the TGI in the assay with COLO 205 colon was found to be 29.6 µM; with OVCAR-4 ovarian, 55.5 µM; in the assay with TK-10 renal, 33.8 µM; with HOP-62 NSCLC, 32.5 µM; in the assay on NCI-H460 lung, 32.7 µM; in the assay on OVCAR-5 ovarian, 35.6 µM. Also, the TGI in the assay on M19-MEL melanoma was 30.5 µM; in the assay on DLD-1 colon it was 35.2 µM.

On to `COc1ccc2c(c1)[C@@H](NC(C)=O)CCc1cc(OC)c(OC)c(OC)c1-2`, for which the TGI was 0.02 µM with COLO 205 colon; greater than 100 µM with OVCAR-4 ovarian; greater than 100 µM in the assay with TK-10 renal; greater than 100 µM in the assay on HOP-62 NSCLC; greater than 100 µM in the assay on RPMI-8226 leukemia; greater than 15.8 µM in the assay with NCI-H460 lung. Moreover, the TGI with OVCAR-5 ovarian, with M19-MEL melanoma and with DLD-1 colon was greater than 100 µM each time.

For the molecule `NC1=C(O)c2cccc3cccc(c23)C1=O`, the TGI in the assay with COLO 205 colon, in the assay with OVCAR-4 ovarian, in the assay on TK-10 renal, in the assay with RPMI-8226 leukemia, in the assay on OVCAR-5 ovarian and with M19-MEL melanoma was greater than 100 µM each time. Moreover, the TGI with DLD-1 colon was greater than 100 µM.

Turning to `Cc1cc(N(CCC#N)CCC#N)ccc1/C=C(\NC(=O)/C=C/c1ccccc1)C(=O)N=[N+]=[N-]`, the TGI with COLO 205 colon, with TK-10 renal, in the assay on HOP-62 NSCLC, with RPMI-8226 leukemia, with NCI-H460 lung and with OVCAR-5 ovarian was greater than 100 µM in each case. For the same molecule, the TGI with M19-MEL melanoma and in the assay with DLD-1 colon was greater than 100 µM in each case.

Regarding `O=S1OC(c2ccccc2)(c2ccccc2)C(c2ccccc2)(c2ccccc2)O1`, the TGI with COLO 205 colon is greater than 100 µM; with OVCAR-4 ovarian, greater than 100 µM; in the assay with TK-10 renal, greater than 100 µM; in the assay with HOP-62 NSCLC, greater than 100 µM; in the assay with RPMI-8226 leukemia, greater than 49.4 µM; in the assay with NCI-H460 lung, greater than 100 µM. Further, the TGI with OVCAR-5 ovarian, in the assay with M19-MEL melanoma and in the assay with DLD-1 colon was greater than 100 µM each time.

In the case of `N#CC(C(=O)CCCC(=O)Nc1ccccc1[N+](=O)[O-])c1c(Cl)cccc1Cl` (configuration not stated), the TGI in the assay on COLO 205 colon, in the assay on OVCAR-4 ovarian, with TK-10 renal, in the assay on HOP-62 NSCLC, in the assay on RPMI-8226 leukemia and in the assay on NCI-H460 lung was greater than 100 µM in each case. Also, the TGI with OVCAR-5 ovarian, in the assay on M19-MEL melanoma and in the assay with DLD-1 colon was greater than 100 µM each time.

Regarding `COC(=O)C(=O)C(C#N)c1nc2ccccc2s1` (configuration not stated), the TGI in the assay with COLO 205 colon, in the assay with OVCAR-4 ovarian, in the assay on TK-10 renal, in the assay with HOP-62 NSCLC, in the assay on RPMI-8226 leukemia and in the assay with NCI-H460 lung was greater than 100 µM each time. Further, the TGI with OVCAR-5 ovarian, in the assay on M19-MEL melanoma and in the assay with DLD-1 colon was greater than 100 µM in each case.

As to `NC(N)NCCCc1cn2c(n1)C1CCCN1C(=O)C2Cc1ccccc1` (configuration not stated), the TGI with COLO 205 colon, in the assay on OVCAR-4 ovarian, in the assay on TK-10 renal, with HOP-62 NSCLC, in the assay on RPMI-8226 leukemia and in the assay on NCI-H460 lung was greater than 100 µM each time. Besides, the TGI in the assay on OVCAR-5 ovarian, in the assay on M19-MEL melanoma and in the assay on DLD-1 colon was greater than 100 µM each time.

As for `CC(=O)OC(C)(C)C1CC[C@]2(C)/C=C/C(C)C[C@@H](O)/C=C(\C)CC(O)C12` (some centres not stated), the TGI in the assay on COLO 205 colon, in the assay with OVCAR-4 ovarian, with TK-10 renal, with HOP-62 NSCLC, in the assay with RPMI-8226 leukemia and in the assay on NCI-H460 lung was greater than 100 µM each time. In addition, the TGI in the assay on OVCAR-5 ovarian, in the assay on M19-MEL melanoma and in the assay with DLD-1 colon was greater than 100 µM in each case.

As for `O=C(CCc1n[nH]c(=S)o1)Nc1cc(Cl)ccc1Cl`, the TGI in the assay on COLO 205 colon was greater than 100 µM; in the assay on OVCAR-4 ovarian, greater than 100 µM; with TK-10 renal, greater than 100 µM; with HOP-62 NSCLC, greater than 100 µM; in the assay on RPMI-8226 leukemia it was 46.3 µM; in the assay on NCI-H460 lung, greater than 100 µM. Besides, the TGI with OVCAR-5 ovarian, in the assay with M19-MEL melanoma and in the assay with DLD-1 colon was greater than 100 µM each time.

`COc1ccc(C(=O)C(C(=O)CCC(=O)Nc2ccc(Cl)c(Cl)c2)c2ccc(OC)cc2)cc1` (configuration not stated): the TGI in the assay with OVCAR-4 ovarian, in the assay with TK-10 renal, with HOP-62 NSCLC, in the assay on RPMI-8226 leukemia, in the assay on NCI-H460 lung and in the assay with OVCAR-5 ovarian was greater than 100 µM throughout. The TGI in the assay with M19-MEL melanoma and with DLD-1 colon was greater than 100 µM throughout.

As to `O=C(/C=C/c1ccccc1)NC1C=Nc2ccc([N+](=O)[O-])cc2NC1=O` (configuration not stated), the TGI in the assay with COLO 205 colon, with OVCAR-4 ovarian, in the assay on TK-10 renal, with HOP-62 NSCLC, in the assay with NCI-H460 lung and with OVCAR-5 ovarian was greater than 100 µM each time. Besides, the TGI in the assay with M19-MEL melanoma and in the assay with DLD-1 colon was greater than 100 µM throughout.

Turning to `CC[C@@]1(OP(=O)(O)O)C(=O)OCc2c1cc1n(c2=O)Cc2cc3ccccc3nc2-1`, the GI50 in the assay with COLO 205 colon was 1.21 µM; in the assay on TK-10 renal it was 4.62 µM; in the assay with HOP-62 NSCLC it was 0.0131 µM; in the assay with RPMI-8226 leukemia it was 0.187 µM; in the assay with OVCAR-5 ovarian it was 0.553 µM; in the assay on M19-MEL melanoma, 0.25 µM. For the same molecule, the GI50 in the assay with DLD-1 colon was 2.56 µM. In addition, the TGI in the assay on COLO 205 colon is 5.64 µM; with OVCAR-4 ovarian it was 6.44 µM and 4.85 µM; with TK-10 renal it was 88 µM; in the assay with HOP-62 NSCLC, 1.47 µM and 0.248 µM; in the assay on RPMI-8226 leukemia it was 2.27 µM and 4.58 µM; with NCI-H460 lung it was 0.666 µM. Also, the TGI in the assay on M19-MEL melanoma was 6.47 µM and 2.05 µM.

For `CC(C)(CN1CCCCC1)C(=O)/C=C/c1ccccc1`, the TGI in the assay on COLO 205 colon came to 40.9 µM; in the assay on OVCAR-4 ovarian, 73.9 µM; with TK-10 renal it was 30.5 µM; in the assay on HOP-62 NSCLC, 61.3 µM; with RPMI-8226 leukemia, 38.3 µM; with NCI-H460 lung, 66.9 µM. Further, the TGI in the assay on OVCAR-5 ovarian came out at 40.4 µM; in the assay with M19-MEL melanoma, 52.3 µM; in the assay with DLD-1 colon it was 54.1 µM.

`C/C(CN1C(=O)c2ccccc2C1=O)=N\NS(=O)(=O)c1ccc2ccccc2c1`: the TGI with COLO 205 colon, with OVCAR-4 ovarian, in the assay with TK-10 renal, in the assay on HOP-62 NSCLC, with RPMI-8226 leukemia and in the assay with NCI-H460 lung was greater than 100 µM each time. Also, the TGI in the assay on OVCAR-5 ovarian, in the assay on M19-MEL melanoma and with DLD-1 colon was greater than 100 µM each time.

For `O=C1C2C3CC4C5C3C1C5C1(SCCS1)C42` (configuration not stated), the TGI in the assay with COLO 205 colon, in the assay with OVCAR-4 ovarian, with TK-10 renal, in the assay on HOP-62 NSCLC, with RPMI-8226 leukemia and with NCI-H460 lung was greater than 100 µM each time. Further, the TGI in the assay on M19-MEL melanoma and with DLD-1 colon was greater than 100 µM throughout.

As for `COc1ccc(C2COc3c(ccc(OC)c3OC)C2=O)cc1OC` (configuration not stated), the TGI in the assay with COLO 205 colon, with OVCAR-4 ovarian, in the assay with TK-10 renal, in the assay with HOP-62 NSCLC, in the assay on RPMI-8226 leukemia and with NCI-H460 lung was greater than 100 µM each time. Also, the TGI with M19-MEL melanoma and in the assay with DLD-1 colon was greater than 100 µM in each case.

Regarding `COc1nc(NC2OC(COC(C)=O)C(OC(C)=O)C(OC(C)=O)C2OC(C)=O)c(N=CC=Nc2c(NC3OC(COC(C)=O)C(OC(C)=O)C(OC(C)=O)C3OC(C)=O)nc(OC)[nH]c2=O)c(=O)[nH]1` (configuration not stated), the TGI with COLO 205 colon, in the assay on OVCAR-4 ovarian, with TK-10 renal, with HOP-62 NSCLC, in the assay with RPMI-8226 leukemia and in the assay with OVCAR-5 ovarian was greater than 100 µM each time. In addition, the TGI with M19-MEL melanoma and with DLD-1 colon was greater than 100 µM throughout.
